Source: US20040209841A1, “Association compound of trehalose or maltitol with metal ion compound” (priority 2001, published 2004)
Like-named read-outs stand apart in the source and are kept apart here. Each block holds one compound with its values, some of them ahead of it.

Tests used:
[1] = Suppressing effect on the oxidation of ferrous ion (Nitroso-DMAP method); assay type: physicochemical; details: for Amount of Fe2+ ion (mg/ml) After light-irradiation: 37° C. four hours, light of about 9,000 luxes, 5% (w/v) saccharide; for Amount of Fe2+ ion (mg/ml) Before light-irradiation: ferrous chloride 1% (w/v) as ferrous ion + 5% (w/v) saccharide
Procedure: Generally, ferrous ion (divalent, Fe^2+) and ferric ion (trivalent, Fe^3+) are known as ions of iron element. Ferrous ion is easily oxidized with light or heat and converted to ferric ion. Effects of trehalose and maltitol on the phenomenon were investigated as follows. An aqueous solution, comprising ferrous chloride (FeCl2) tetrahydrate corresponding to the amount of 1% (w/v) as ferrous ion, and comprising trehalose or maltitol corresponding to the amount of 5% (w/v), d.s.b., was prepared as a test solution. While, a solution, comprising ferrous chloride only with the same concentration to the test solution, was prepared as a control solution. After preparing the test and control solutions, small portions of which were sampled respectively, and the amount of ferrous ion was measured by the Nitroso-DMAP method described later. Successively, 10 ml each of the test and control solution was placed separately in a 20 ml-vial and sealed. After preserving these vials at 37° C. for four hours with irradiating a light of about 9,000 luxes, the amount of ferrous ion in each solution was measured by the Nitroso-DMAP method. Measurement by the Nitroso-DMAP method was carried out as follows. After diluting the test or control solution accurately by 100-fold, 0.5 ml of the dilute was placed in a 50 ml-volumetric flask. […] After the above procedure, the absorbance at 750 nm (within the visible light range) of the solution was measured. The standard solutions, prepared by diluting stepwise a ferrous chloride solution with known concentration, were used for the measurement in the same manner to obtain a standard curve for quantitative analysis. The amount of ferrous ion of the test or the control solution was determined with the standard curve.

[2] = pH 3.5
Procedure: Effects of trehalose, maltitol, and other saccharides on the solubilities of calcium-organic acid salts were investigated as follows. […] Successively, five grams of commercially available calcium DL-lactate pentahydrate or calcium gluconate monohydrate, used as calcium-organic acid salts, were added to each saccharide solution, followed by suspension. Thereafter, the pH of each solution was adjusted to 3.5, and the solution was filled up to give a volume of 50 ml with deionized water. After stirring at 25° C. for 16 hours, insoluble calcium-organic acid salts were removed by centrifuging (15,000 rpm for 30 minutes). The pHs of the resulting supernatants were measured. The calcium concentrations of the supernatant were measured using an atomic adsorption photometer described in Experiment 5. The solution prepared with no saccharide was also measured for calcium concentration in the same manner as control.

[3] = Suppressing effect on the deterioration of ascorbic acid under the presence of metal ion (degree of coloring); assay type: physicochemical; details: 50° C.; for Degree of coloring (Abs. at 420 nm) Preserved for 96 hrs: 14.8 mM AsA + 10 mM FeCl2 + 100 mM saccharide
Procedure: L-Ascorbic acid deteriorates rapidly by the oxidative degradation in the presence of iron and copper ions and causes the browning. The effects of trehalose and maltitol on the phenomenon were investigated as follows. Ten kinds of aqueous solutions having respective compositions described in Table 12 were prepared. Aqueous solutions of L-ascorbic acid alone or L-ascorbic acid and metal ion compounds were used as controls. The test solutions were prepared by adding trehalose or maltitol to the control solutions. Ten milliliters of each of these test and control solutions were placed into different 20 ml-vials and sealed. The vials were preserved at 50° C. The control and test solutions, containing ferrous chloride, and those containing ferric chloride or copper sulfate were preserved for 96 hours and 40 hours, respectively. After the preservation, the degree of coloring of each solution was measured. In the case of a control solution containing L-ascorbic acid alone, the degrees of coloring were measured at the preservation periods of 40 hours and 96 hours. The absorbance at 420 nm (within the visible light range) of each sample was measured as the degree of coloring.

[4] = Change of solubility of metal ion compounds by the association with trehalose (precipitation of crystal); assay type: physicochemical
Procedure: The changes of solubility in water of trehalose and/or metal ion compounds were examined under coexistence of trehalose and metal ion compounds. […] Solutions prepared by dissolving the same amount of trehalose only or that of metal ion compounds only were prepared as controls. After dissolving the contents completely, all the beakers were allowed to stand at room temperature (25° C.) for 24 hours. Successively, precipitation of crystals was judged by macroscopic observation. In the case of precipitating crystals, the formed crystals were collected and analyzed for those component(s) by conventional method.

[5] = Hygroscopicity (deliquescence) test; assay type: physicochemical; details: for Moisture content/g-sample: 25° C.
Procedure: A dried bittern powder was prepared by drying bittern solution in vacuo at 60° C. for 15 hours, pulverized, and dried in a usual manner for use as a control. The moisture content (weight of moisture per one gram of the sample) of each sample was measured by conventional drying loss method. […] The weight of the content in each cup was measured at the initiation of preservation (0 day preservation), and 1, 2, 4, and 7 days after the initiation. The amount of moisture per one gram of each at sample after 1 to 7 days preservation was calculated based on the assumption that the increased amount measured to that of 0 day preservation was the amount of moisture absorbed by each sample.

[6] = 14.8 mM AsA + 10 mM CuSO4 + 100 mM saccharide
[7] = 14.8 mM AsA + 10 mM FeCl3 + 100 mM saccharide
[8] = 0.1 mole metal ion compound only, 30 grams of water, 25° C. 24 hours

Amount of Fe2+ ion (mg/ml) After light-irradiation [1]: 4.4 mg/mL | Amount of Fe2+ ion (mg/ml) Before light-irradiation [1]: 10.1 mg/mL | Relative conc. (%), Calcium gluconate ([2]; 16 h, 100 mg/ml): 112% | Relative conc. (%), Calcium lactate ([2]; 16 h, 100 mg/ml): 129% | increase of calcium concentration in the supernatant in comparison with control, calcium gluconate ([2]; 16 h, 100 mg/ml): 12% | increase of calcium concentration in the supernatant in comparison with control, calcium lactate ([2]; 16 h, 100 mg/ml): 29% | Degree of coloring (Abs. at 420 nm) Preserved for 40 hrs [3, 6]: 0.311 | Degree of coloring (Abs. at 420 nm) Preserved for 96 hrs [3]: 0.380 | Degree of coloring (Abs. at 420 nm) Preserved for 40 hrs [3, 7]: 0.226
Structure (SMILES): OC[C@H]1O[C@H](O[C@H]2O[C@H](CO)[C@@H](O)[C@H](O)[C@H]2O)[C@H](O)[C@@H](O)[C@@H]1O [Trehalose, α,α-trehalose]

Precipitation of crystal In the absence of trehalose [4, 8]: Precipitated
Structure (SMILES): [Cl][Cu] [Cuprous chloride, cuprous chloride dihydrate]

Amount of Fe2+ ion (mg/ml) After light-irradiation [1]: 4.3 mg/mL | Amount of Fe2+ ion (mg/ml) Before light-irradiation [1]: 10.2 mg/mL | Relative conc. (%), Calcium gluconate [2]: 128% | Relative conc. (%), Calcium lactate [2]: 123% | increase of calcium concentration in the supernatant in comparison with control, calcium gluconate [2]: 28% | increase of calcium concentration in the supernatant in comparison with control, calcium lactate [2]: 23% | Degree of coloring (Abs. at 420 nm) Preserved for 40 hrs [3, 6]: 0.258 | Degree of coloring (Abs. at 420 nm) Preserved for 96 hrs [3]: 0.291 | Degree of coloring (Abs. at 420 nm) Preserved for 40 hrs [3, 7]: 0.198
Structure (SMILES): OC[C@@H](O)[C@@H](O[C@H]1O[C@H](CO)[C@@H](O)[C@H](O)[C@H]1O)[C@H](O)[C@@H](O)CO [Maltitol, maltitol]

Precipitation of crystal In the absence of trehalose [4, 8]: Precipitated
Structure (SMILES): O.O.O.O.[Cl][Fe][Cl] [Ferrous chloride, ferrous chloride tetrahydrate]

Structure (SMILES): O.O.[Ca+2].[Cl-].[Cl-] [CaCl2 · 2H2O, calcium chloride dihydrate]
moisture content (weight of moisture per one gram of the sample) ([5]; before preservation, drying loss method): 0.245 g | Moisture content/g-sample ([5]; relative humidity 33.0%, 0 day): 0.245 g | Moisture content/g-sample ([5]; relative humidity 33.0%, 1 day): 0.289 g | Moisture content/g-sample ([5]; relative humidity 33.0%, 2 days): 0.312 g | Moisture content/g-sample ([5]; relative humidity 33.0%, 3 days): 0.343 g | Moisture content/g-sample ([5]; relative humidity 33.0%, 7 days): 0.364 g | Moisture content/g-sample ([5]; relative humidity 52.8%, 0 day): 0.245 g | Moisture content/g-sample ([5]; relative humidity 52.8%, 1 day): 0.319 g | Moisture content/g-sample ([5]; relative humidity 52.8%, 2 days): 0.359 g | Moisture content/g-sample ([5]; relative humidity 52.8%, 3 days): 0.405 g | Moisture content/g-sample ([5]; relative humidity 52.8%, 7 days): 0.430 g

Structure (SMILES): O.O.O.O.O.O.[Cl][Ni][Cl] [Nickel chloride, nickel chloride hexahydrate]
Precipitation of crystal In the absence of trehalose [4]: Precipitated | Precipitation of crystal In the presence of trehalose [4]: None

Structure (SMILES): O.O.O.O.[Cl][Mn][Cl] [Manganese chloride, manganese chloride tetrahydrate]
Precipitation of crystal In the presence of trehalose ([4]; 0.1 mole metal ion compound + 0.1 mole trehalose, 30 grams of water, room temperature (25° C.) 24 hours, macroscopic observation): None | Precipitation of crystal In the absence of trehalose [4, 8]: Precipitated
